# According to patent US10907159B2, “Methods of treating cancer by inhibition of DNA repair proteins using antisense based therapies” (SARISSA INC., priority 2015, dated 2021):
# Entries after “also recorded” stand apart in the source; their conditions may differ.
# How the values were obtained:
# A549b cells = assay: Proliferation of A549b cells after OLIGO/siRNA transfection (cell counting); assay type: cell-based, human
# Description: Cultured cell lines were maintained in minimum essential medium a with nucleosides plus 10% fetal bovine serum and penicillin (50 units/mL)/streptomycin (50 mg/L) (growth medium). Cultures were incubated in a humidified atmosphere of 5% CO2 at 37° C. Cultured cell lines were maintained and cytotoxicity assays conducted as described previously (3). Rapidly proliferating cells were utilized for establishing cultures of experimental cells, which were allowed to plate overnight in 25-cm^2 flasks prior to manipulation. An established cell line of non-small-cell lung carcinoma (NSCLC), A549b, which was propagated by serial dilution from a single cell of an A549 parent cell line, was used for the establishment of antisense activity of oligonucleotides. This cell line proliferates with a mean generation time of approximately 20 hours, and is capable of forming tumours in immunodeficient mice with a take rate of greater than 90%. Therefore, this cell line is a good model system that can be used in both in vitro and in vivo experiments to test the activity of OLIGOs.
# OLIGOs were introduced into cells with the use of Lipofectamine 2000 (LFA2K) (Invitrogen, Burlington, Ontario, Canada). OLIGOs were mixed with LFA2K at a ratio of 0.2 μg/ml per 10 nM OLIGO. The mixture was prepared at 11× the final concentration to which cells were exposed, so that 200 μL was added to 2 mL of medium in which cells were plated. As controls, cells were exposed to medium alone (no treatment), LFA2K alone at concentrations equivalent to those used in combination with OLIGOs (in some experiments only the maximum LFA2K concentration was used as a control), or OLIGO having no complementarity with any human mRNA. The OLIGO/LFA2K mixtures were then incubated at room temperature for 20 minutes, according to instructions supplied with the LFA2K, followed by addition of the OLIGOs to the cell medium. The OLIGO/LFA2K mix was then incubated (37° C.) on the cells for 4 hours, after which a second volume of medium was added. Cells were then incubated for 20 hours. Following this incubation, the OLIGO-containing medium was replaced with drug-free medium (i.e. medium without OLIGOs) and the cells were incubated for an additional 4 days. Following the 4-day incubation, the proliferation of the treated cells (fold-increase in cell number) was calculated as a percentage of that of control cells. Cell numbers were enumerated on an electronic particle counter (Beckman Coulter, Mississauga, ON). For the purpose of determining the anti-proliferative effect of antisense OLIGOs, the proliferation of cells treated with antisense OLIGOs was calculated as a percent of that of cells treated with an equivalent concentration of non-complementary control OLIGO (in this case OLIGO 32) mixed with an equivalent amount of LFA2K.
# OLIGO-containing medium was removed and replaced with fresh medium. Cells were incubated for 4 days, at which time cell number was counted. Proliferation was calculated as a percent of non-targeting OLIGO-treated controls.
# Cells were incubated for 4 days, at which time cell number was counted. Proliferation was calculated as a percent of controls.
# TS mRNA = assay: RT-qPCR of TS mRNA in A549 cells after OLIGO transfection; assay type: cell-based, human; details: 20 nM OLIGO, 24 hours post-transfection; FIG. 16
# Description: Briefly, A549 cells seeded at a density of 2.0×10^5 per flask were transfected with 20 nM of OLIGO specific for each target or control OLIGO using Lipofectamine 2000 as the transfection reagent. Twenty four hours post-transfection mRNA was extracted and reverse transcribed into cDNA. RT-qPCR was performed for target mRNA levels using TaqMan reagents according to established protocols.
# SKOV-3 cells = assay: Cell proliferation assay, ASO transfection and/or drug (cell counting); assay type: cell-based, human; details: FIG. 49
# Description: FIG. 24 illustrates that BRCA2 inhibition sensitizes ovarian cancer and breast cancer cell lines to olaparib treatment. SKOV-3 (A) and CaOV3 (B) cells were transfected with control ASO (•) or BRCA2 ASO (∘) and then treated with three different concentrations of olaparib. Proliferation was determined by cell counting 96 hours post-transfection (*p<0.05). C: BRCA2 mRNA levels were measured by qPCR 24 hours following BRCA2 ASO transfection in SKOV-3, CaOV3, 211 H and H2052 cell lines.
# E: SKOV-3 cells were transfected with control or BRCA2 ASO and then treated with olaparib 24 hours post transfection. Ninety-six hours post transfection, cells were counted, plated, and re-transfected with control ASO or BRCA2 ASO and re-treated with olaparib. Cell counts were performed 96 hours post transfection (*p<0.05). […]
# A: BRCA2-wild type SKOV-3 cells (black bars), […] MCF-7 cells (white bars), and BRCA2-mutated CAPAN-1 cells (grey bars) were treated simultaneously but separately with BRCA2 ASO (20 nM). […] Ninety-six hours post-transfection, cells were counted and proliferation determined (% of proliferation after control ASO treatment).
# C: SKOV-3, MCF-7 and CAPAN-1 cells were treated with two different concentrations of olaparib for 96 hours. After drug treatment they were counted and proliferation was determined as a percent of that of vehicle-treated cells. […]
# CAPAN-1 cells = assay: Cell proliferation assay, ASO and/or drug (cell counting); assay type: cell-based, human; details: CAPAN-1 with mutated, non-functional BRCA2; FIG. 52
# Description: A: BRCA2-wild type SKOV-3 cells (black bars), […] MCF-7 cells (white bars), and BRCA2-mutated CAPAN-1 cells (grey bars) were treated simultaneously but separately with BRCA2 ASO (20 nM). Due to differing growth medium requirements and to avoid fluorescent label-induced changes in drug sensitivity, cells were not co-cultured. They were treated independently, at the same time with the same materials. Ninety-six hours post-transfection, cells were counted and proliferation determined (% of proliferation after control ASO treatment).
# C: SKOV-3, MCF-7 and CAPAN-1 cells were treated with two different concentrations of olaparib for 96 hours. After drug treatment they were counted and proliferation was determined as a percent of that of vehicle-treated cells.
# Four hours post-transfection, cells were seeded into 6 well dishes in appropriate experimental groups. Twenty-four hours post transfection, cells were treated with olaparib (Selleckchem) at three concentrations. Ninety-six hours post transfection, cells were collected and counted (Coulter Particle Counter). Proliferation was determined based on initial cell density and calculated as a percentage of ASO+vehicle treated cells.
# [1] = test system: EPT1 prostate epithelial cells; assay: Veliparib after BR1 pretreatment; assay type: cell-based; details: FIG. 37
substance,measurement,setting,value
"5′-guaucuCTTGACGTuccuua-3′ (GUAUCUCTTGACGTUCCUUA; gapmer, lower-case wings modified, type not given here) [BR1]",anti-proliferative effect as single agent,"A549b cells; A549/A549b cells, 4 h transfection, counted after 4 d, vs non-targeting control OLIGO",inhibited proliferation on its own; also recorded: greater inhibition as a single agent; also recorded: inhibit proliferation of human non-small cell lung cancer A549 cells in a concentration-dependent manner
same,inhibit proliferation of A549b cells,"A549b cells; single agent, mixed with 0.2 μg/mL LFA2K, compared with control OLIGO 32, FIG. 1",over 50%
same,effect on TS mRNA level,TS mRNA,no significant effect on TS mRNA
same,effect on antiproliferative activity of cisplatin,SKOV-3 cells,enhances the antiproliferative activity of cisplatin
same,effect on antiproliferative activity of cisplatin,CAPAN-1 cells,no effect on the antiproliferative activity of cisplatin
same,enhancement of veliparib,[1],little or not at all
